Key:
Test in all cases: Kinase selectivity screen
Format in all cases: biochemical
TTBK1 = TTBK1 (Homo sapiens, UniProt Q5TCY1); settings: TTBK1, 10 μM
Method: (§1) The substantially less demanding synthesis of ICL-CCIC-0019 compared with MN58B bears additional advantages. […] This consequently diminished intracellular PCho concentration, and importantly, the incorporation of [^3H]-choline into lipids (Figure 1D). […] To assess kinase specificity, ICL-CCIC-0019 was tested against a panel of 131 human kinases (Figure 1E and Supplementary Table S1). […] Inhibition greater than 20% was attained for insulin-like growth factor 1 (IGF-1R, 35 ± 7% inhibition), mitogen-activated protein kinase-activated protein kinase 3 (MAPKAP-K3, 33 ± 6%), extracellular signal regulated kinase 8 (ERK8, 31 ± 4%), ribosomal S6 kinase 1 (RSK1, 22 ± 6%), and v-erb-a erythroblastic leukemia viral oncogene homolog 4 (HER4, 21 ± 7%).

EPH-A4 = EPH-A4 (Homo sapiens, UniProt P54764); settings: EPH-A4, 10 μM
Method: as §1

CK1γ2 = CK1γ2 (Homo sapiens, UniProt P78368); settings: CK1γ2, 10 μM
Method: as §1

PKA = PKA (Homo sapiens, UniProt P17612)
Method: as §1

PHK = PHK (Homo sapiens, UniProt Q16816)
Method: as §1

PKBb = PKBb (Homo sapiens, UniProt P31751)
Method: as §1

TAO1 = TAO1 (Homo sapiens, UniProt Q7L7X3); settings: TAO1, 10 μM
Method: as §1

PRAK = PRAK (Homo sapiens, UniProt Q8IW41)
Method: as §1

JNK2 = JNK2 (Homo sapiens, UniProt P45984); settings: JNK2, 10 μM
Method: as §1

MINK1 = MINK1 (Homo sapiens, UniProt Q8N4C8); settings: MINK1, 10 μM
Method: as §1

EPH-B3 = EPH-B3 (Homo sapiens, UniProt P54753); settings: EPH-B3, 10 μM
Method: as §1

PKBa = PKBa (Homo sapiens, UniProt P31749)
Method: as §1

EF2K = EF2K (Homo sapiens, UniProt O00418)
Method: as §1

MAPKAP-K2 = MAPKAP-K2 (Homo sapiens, UniProt P49137); settings: MAPKAP-K2, 10 μM
Method: as §1

SIK3 = SIK3 (Homo sapiens, UniProt Q9Y2K2); settings: SIK3, 10 μM
Method: as §1

PAK5 = PAK5 (Homo sapiens, UniProt Q9P286); settings: PAK5, 10 μM
Method: as §1

ERK8 = ERK8 (Homo sapiens, UniProt Q8TD08); settings: ERK8, 10 μM
Method: as §1

SRPK1 = SRPK1 (Homo sapiens, UniProt Q96SB4); settings: SRPK1, 10 μM
Method: as §1

NEK2a = NEK2a (Homo sapiens, UniProt P51955)
Method: as §1

SIK2 = SIK2 (Homo sapiens, UniProt Q9H0K1); settings: SIK2, 10 μM
Method: as §1

MST2 = MST2 (Homo sapiens, UniProt Q13188); settings: MST2, 10 μM
Method: as §1

GSK3b = GSK3b (Homo sapiens, UniProt P49841)
Method: as §1

PKCz = PKCz (Homo sapiens, UniProt Q05513)
Method: as §1

DYRK3 = DYRK3 (Homo sapiens, UniProt O43781); settings: DYRK3, 10 μM
Method: as §1

PKCγ = PKCγ (Homo sapiens, UniProt P05129)
Method: as §1

IKKb = IKKb (Homo sapiens, UniProt O14920)
Method: as §1

MPSK1 = MPSK1 (Homo sapiens, UniProt O75716); settings: MPSK1, 10 μM
Method: as §1

IRR = IRR (Homo sapiens, UniProt P14616)
Method: as §1

IR = IR (Homo sapiens, UniProt P06213)
Method: as §1

MSK1 = MSK1 (Homo sapiens, UniProt O75582); settings: MSK1, 10 μM
Method: as §1

GCK = GCK (Homo sapiens, UniProt Q12851)
Method: as §1

PAK6 = PAK6 (Homo sapiens, UniProt Q9NQU5); settings: PAK6, 10 μM
Method: as §1

IRAK4 = IRAK4 (Homo sapiens, UniProt Q9NWZ3); settings: IRAK4, 10 μM
Method: as §1

ERK2 = ERK2 (Homo sapiens, UniProt P28482); settings: ERK2, 10 μM
Method: as §1

PDK1 = PDK1 (Homo sapiens, UniProt O15530); settings: PDK1, 10 μM
Method: as §1

CAMKKb = CAMKKb (Homo sapiens, UniProt Q96RR4)
Method: as §1

MARK2 = MARK2 (Homo sapiens, UniProt Q7KZI7); settings: MARK2, 10 μM
Method: as §1

Sequence of ERK8 (Q8TD08 whole entry): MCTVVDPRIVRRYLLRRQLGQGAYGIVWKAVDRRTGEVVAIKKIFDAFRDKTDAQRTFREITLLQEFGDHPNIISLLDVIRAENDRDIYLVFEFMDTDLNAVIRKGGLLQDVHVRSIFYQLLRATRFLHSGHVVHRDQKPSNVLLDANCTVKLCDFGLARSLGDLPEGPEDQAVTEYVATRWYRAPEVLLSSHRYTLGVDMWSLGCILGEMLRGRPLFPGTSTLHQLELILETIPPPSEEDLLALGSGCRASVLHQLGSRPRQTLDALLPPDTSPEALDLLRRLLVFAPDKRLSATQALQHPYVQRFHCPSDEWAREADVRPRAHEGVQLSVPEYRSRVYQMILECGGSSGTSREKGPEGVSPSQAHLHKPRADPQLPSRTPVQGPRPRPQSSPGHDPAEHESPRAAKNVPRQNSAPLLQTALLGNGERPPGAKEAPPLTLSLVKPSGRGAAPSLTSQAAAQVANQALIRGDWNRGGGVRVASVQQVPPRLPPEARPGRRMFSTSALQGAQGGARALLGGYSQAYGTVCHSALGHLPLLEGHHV
Sequence of MST2 (Q13188 whole entry): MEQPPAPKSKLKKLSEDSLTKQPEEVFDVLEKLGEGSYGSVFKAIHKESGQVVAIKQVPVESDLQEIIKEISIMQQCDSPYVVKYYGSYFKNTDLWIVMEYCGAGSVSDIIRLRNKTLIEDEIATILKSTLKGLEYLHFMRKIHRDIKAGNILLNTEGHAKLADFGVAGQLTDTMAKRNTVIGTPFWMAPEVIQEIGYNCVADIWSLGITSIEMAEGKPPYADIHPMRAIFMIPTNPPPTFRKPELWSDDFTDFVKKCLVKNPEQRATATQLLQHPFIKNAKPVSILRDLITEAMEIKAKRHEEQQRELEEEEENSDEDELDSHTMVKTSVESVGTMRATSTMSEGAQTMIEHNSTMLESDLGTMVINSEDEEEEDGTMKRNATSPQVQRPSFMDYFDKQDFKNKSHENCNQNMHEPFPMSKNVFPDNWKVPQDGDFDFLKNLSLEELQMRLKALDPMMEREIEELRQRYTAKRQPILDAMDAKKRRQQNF
Sequence of EPH-A4 (P54764 20-986): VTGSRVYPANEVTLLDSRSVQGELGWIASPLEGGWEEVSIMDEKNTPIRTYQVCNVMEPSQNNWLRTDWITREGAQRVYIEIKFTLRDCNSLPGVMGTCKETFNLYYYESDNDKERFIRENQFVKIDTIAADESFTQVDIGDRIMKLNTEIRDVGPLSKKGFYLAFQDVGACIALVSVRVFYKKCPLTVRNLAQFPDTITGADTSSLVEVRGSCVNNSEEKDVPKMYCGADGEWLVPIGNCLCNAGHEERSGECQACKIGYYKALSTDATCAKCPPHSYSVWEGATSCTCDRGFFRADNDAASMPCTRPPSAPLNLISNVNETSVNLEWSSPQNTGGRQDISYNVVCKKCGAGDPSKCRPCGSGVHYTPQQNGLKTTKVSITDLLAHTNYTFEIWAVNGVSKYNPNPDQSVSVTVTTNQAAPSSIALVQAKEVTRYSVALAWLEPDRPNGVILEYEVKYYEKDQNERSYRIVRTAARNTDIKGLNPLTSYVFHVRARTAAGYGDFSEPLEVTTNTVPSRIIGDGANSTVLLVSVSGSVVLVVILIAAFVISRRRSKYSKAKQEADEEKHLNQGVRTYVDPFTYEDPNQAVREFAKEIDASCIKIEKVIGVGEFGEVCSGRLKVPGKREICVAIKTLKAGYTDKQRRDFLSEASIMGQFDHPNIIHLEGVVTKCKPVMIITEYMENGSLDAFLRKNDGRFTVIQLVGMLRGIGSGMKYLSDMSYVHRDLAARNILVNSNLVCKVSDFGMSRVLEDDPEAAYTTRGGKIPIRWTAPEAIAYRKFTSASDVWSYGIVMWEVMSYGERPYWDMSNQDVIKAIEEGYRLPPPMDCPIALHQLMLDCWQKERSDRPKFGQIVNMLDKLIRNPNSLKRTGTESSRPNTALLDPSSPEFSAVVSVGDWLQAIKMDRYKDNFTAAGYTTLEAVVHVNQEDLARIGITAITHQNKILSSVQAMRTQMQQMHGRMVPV
Sequence of EPH-B3 (P54753 34-998): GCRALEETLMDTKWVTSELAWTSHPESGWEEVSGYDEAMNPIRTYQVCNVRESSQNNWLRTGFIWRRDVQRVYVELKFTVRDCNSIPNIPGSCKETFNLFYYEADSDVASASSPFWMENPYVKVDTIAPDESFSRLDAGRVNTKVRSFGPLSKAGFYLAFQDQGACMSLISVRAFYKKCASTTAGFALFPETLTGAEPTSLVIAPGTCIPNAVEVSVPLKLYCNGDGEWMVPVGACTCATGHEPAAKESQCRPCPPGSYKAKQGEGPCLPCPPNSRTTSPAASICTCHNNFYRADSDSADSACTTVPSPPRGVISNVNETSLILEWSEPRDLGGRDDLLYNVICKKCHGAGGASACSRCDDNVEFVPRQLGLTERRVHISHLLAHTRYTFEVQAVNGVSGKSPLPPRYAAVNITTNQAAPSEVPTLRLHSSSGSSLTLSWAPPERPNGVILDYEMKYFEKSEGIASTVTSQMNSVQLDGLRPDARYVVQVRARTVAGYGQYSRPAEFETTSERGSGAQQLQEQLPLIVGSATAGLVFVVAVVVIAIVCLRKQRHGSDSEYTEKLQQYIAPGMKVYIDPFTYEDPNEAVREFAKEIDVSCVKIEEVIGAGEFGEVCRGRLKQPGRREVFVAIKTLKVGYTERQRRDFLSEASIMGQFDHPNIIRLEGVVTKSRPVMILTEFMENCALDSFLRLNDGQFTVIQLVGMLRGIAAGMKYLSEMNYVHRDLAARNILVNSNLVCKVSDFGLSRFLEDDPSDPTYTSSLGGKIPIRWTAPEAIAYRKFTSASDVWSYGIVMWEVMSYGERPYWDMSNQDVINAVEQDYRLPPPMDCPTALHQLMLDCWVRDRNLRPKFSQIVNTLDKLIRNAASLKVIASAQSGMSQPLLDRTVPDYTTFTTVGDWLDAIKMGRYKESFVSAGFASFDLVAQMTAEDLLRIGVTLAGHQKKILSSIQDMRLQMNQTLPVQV
Sequence of GSK3b (P49841 whole entry): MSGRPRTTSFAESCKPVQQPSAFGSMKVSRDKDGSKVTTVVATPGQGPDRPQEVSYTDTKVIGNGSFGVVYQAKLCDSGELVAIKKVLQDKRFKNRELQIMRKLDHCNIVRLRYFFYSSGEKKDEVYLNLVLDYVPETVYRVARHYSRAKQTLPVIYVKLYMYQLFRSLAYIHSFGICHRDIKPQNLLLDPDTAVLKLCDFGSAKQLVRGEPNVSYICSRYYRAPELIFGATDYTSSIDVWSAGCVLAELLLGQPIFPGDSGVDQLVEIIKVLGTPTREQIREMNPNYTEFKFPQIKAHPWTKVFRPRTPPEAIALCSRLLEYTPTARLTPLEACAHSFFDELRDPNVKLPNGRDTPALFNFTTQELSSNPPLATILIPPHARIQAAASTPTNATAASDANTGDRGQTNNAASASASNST
Sequence of GCK (Q12851 whole entry): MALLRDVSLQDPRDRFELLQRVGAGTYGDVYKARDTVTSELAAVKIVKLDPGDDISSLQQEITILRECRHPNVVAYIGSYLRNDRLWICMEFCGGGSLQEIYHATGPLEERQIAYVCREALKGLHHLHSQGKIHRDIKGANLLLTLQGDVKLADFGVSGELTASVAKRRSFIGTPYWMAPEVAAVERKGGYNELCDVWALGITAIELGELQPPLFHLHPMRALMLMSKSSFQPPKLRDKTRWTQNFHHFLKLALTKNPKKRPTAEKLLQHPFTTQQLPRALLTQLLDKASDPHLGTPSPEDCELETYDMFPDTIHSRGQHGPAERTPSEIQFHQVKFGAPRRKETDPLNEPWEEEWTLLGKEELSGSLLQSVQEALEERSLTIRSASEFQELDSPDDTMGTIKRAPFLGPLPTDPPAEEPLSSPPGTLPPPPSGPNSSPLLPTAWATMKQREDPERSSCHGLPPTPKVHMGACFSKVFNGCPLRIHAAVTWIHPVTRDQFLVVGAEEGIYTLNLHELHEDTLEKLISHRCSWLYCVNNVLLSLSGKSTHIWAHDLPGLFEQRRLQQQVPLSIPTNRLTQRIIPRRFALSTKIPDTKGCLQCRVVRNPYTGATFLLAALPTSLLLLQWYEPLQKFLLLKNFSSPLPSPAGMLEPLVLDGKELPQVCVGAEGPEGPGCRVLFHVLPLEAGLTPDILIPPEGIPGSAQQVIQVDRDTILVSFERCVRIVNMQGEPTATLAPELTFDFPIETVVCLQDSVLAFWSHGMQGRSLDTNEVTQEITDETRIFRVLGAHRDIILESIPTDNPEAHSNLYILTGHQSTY
Sequence of CAMKKb (Q96RR4 whole entry): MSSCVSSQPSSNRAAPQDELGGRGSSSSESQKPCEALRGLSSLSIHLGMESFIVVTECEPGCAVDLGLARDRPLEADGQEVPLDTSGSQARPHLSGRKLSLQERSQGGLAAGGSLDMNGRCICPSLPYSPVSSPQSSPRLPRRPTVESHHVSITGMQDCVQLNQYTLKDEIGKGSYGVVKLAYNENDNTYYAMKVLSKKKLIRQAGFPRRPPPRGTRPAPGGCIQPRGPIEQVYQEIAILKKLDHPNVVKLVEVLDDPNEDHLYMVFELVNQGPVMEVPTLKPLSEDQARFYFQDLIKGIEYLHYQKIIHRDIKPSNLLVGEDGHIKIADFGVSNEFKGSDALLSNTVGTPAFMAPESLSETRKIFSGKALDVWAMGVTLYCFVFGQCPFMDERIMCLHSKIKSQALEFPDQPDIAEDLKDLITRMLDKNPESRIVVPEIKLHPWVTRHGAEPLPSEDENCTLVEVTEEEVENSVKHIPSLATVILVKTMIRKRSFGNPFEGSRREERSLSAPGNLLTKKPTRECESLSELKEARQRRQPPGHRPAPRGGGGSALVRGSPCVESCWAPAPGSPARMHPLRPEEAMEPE

CN(C)c1cc[n+](CCCCCCCCCCCC[n+]2ccc(N(C)C)cc2)cc1 [ICL-CCIC-0019]
remaining activity at 10 µM (TTBK1): 97% | remaining activity at 10 µM (EPH-A4): 124% | remaining activity at 10 µM (CK1γ2): 92% | remaining activity at 10 µM (PKA): 106% | remaining activity at 10 µM (PHK): 94% | remaining activity at 10 µM (PKBb): 93% | remaining activity at 10 µM (TAO1): 100% | remaining activity at 10 µM (PRAK): 101% | remaining activity at 10 µM (JNK2): 100% | remaining activity at 10 µM (MINK1): 100% | remaining activity at 10 µM (EPH-B3): 107% | remaining activity at 10 µM (PKBa): 101% | remaining activity at 10 µM (EF2K): 99% | remaining activity at 10 µM (MAPKAP-K2): 89% | remaining activity at 10 µM (SIK3): 102% | remaining activity at 10 µM (PAK5): 90% | inhibition at 10 µM (ERK8): 31 ± 4% | remaining activity at 10 µM (ERK8): 69% | remaining activity at 10 µM (SRPK1): 106% | remaining activity at 10 µM (NEK2a): 101% | remaining activity at 10 µM (SIK2): 109% | remaining activity at 10 µM (MST2): 89% | remaining activity at 10 µM (GSK3b): 94% | remaining activity at 10 µM (PKCz): 106% | remaining activity at 10 µM (DYRK3): 106% | remaining activity at 10 µM (PKCγ): 93% | remaining activity at 10 µM (IKKb): 101% | remaining activity at 10 µM (MPSK1): 105% | remaining activity at 10 µM (IRR): 92% | remaining activity at 10 µM (IR): 103% | remaining activity at 10 µM (MSK1): 96% | remaining activity at 10 µM (GCK): 89% | remaining activity at 10 µM (PAK6): 107% | remaining activity at 10 µM (IRAK4): 83% | remaining activity at 10 µM (ERK2): 103% | remaining activity at 10 µM (PDK1): 133% | remaining activity at 10 µM (CAMKKb): 91% | remaining activity at 10 µM (MARK2): 86%
